According to the OligoGym collection:
These antisense oligonucleotides have a phosphorothioate backbone; sugars and methylation of C are not fully specified.

Columns and labels:
Conditions in all cases: ASO
[1] = molecular target: SMAD7
[2] = molecular target: MAP3K1
[3] = molecular target: PTPN11
Also: test concentration or dose not given here.

## TGGACACAGTAGAGCCTC
[1]
  remaining target (mRNA or protein) (fraction of control): ≥ 1

## GGCAGCTGCTGATGAACT
[1]
  remaining target (mRNA or protein) (fraction of control): 0.86

## GAGAAAACTTGCGCTGTGTT
[2]
  remaining target (mRNA or protein) (fraction of control): 0.37

## CTGTTCAGTGGCATCATGGC
[2]
  remaining target (mRNA or protein) (fraction of control): 0.49

## CAGTTTTGAAAACACATGGG
[2]
  remaining target (mRNA or protein) (fraction of control): ≥ 1

## TCCGCGATGTCATGTTCCTC
[3]
  remaining target (mRNA or protein) (fraction of control): 0.26

## AATCCTTTTCCAGTTTTCTC
[2]
  remaining target (mRNA or protein) (fraction of control): 0.87

## GGACTTGATGAAGATGGG
[1]
  remaining target (mRNA or protein) (fraction of control): ≥ 1

## TTGCATTGATGTAATCTGAA
[3]
  remaining target (mRNA or protein) (fraction of control): 0.98

## ATTTCCAATGAGAATGCT
[1]
  remaining target (mRNA or protein) (fraction of control): ≥ 1

## CAAGGCTGGAAACATTAATT
[2]
  remaining target (mRNA or protein) (fraction of control): 0.94

## GGCAAAAGCCATTCCCCT
[1]
  remaining target (mRNA or protein) (fraction of control): 0.72

## GAATCCCTGAAGTCTATGCT
[2]
  remaining target (mRNA or protein) (fraction of control): 0.52

## AGTCTGCAGTTGGTTTGA
[1]
  remaining target (mRNA or protein) (fraction of control): ≥ 1

## ATCTGCACAGTTCAGAGGAT
[3]
  remaining target (mRNA or protein) (fraction of control): 0.51

## CCCTTGTCCAACCTTTGAAA
[3]
  remaining target (mRNA or protein) (fraction of control): 0.25

## AGGAGGCGAGGAGAAAAG
[1]
  remaining target (mRNA or protein) (fraction of control): ≥ 1

## AATTGGTTCTGGTTCGGC
[1]
  remaining target (mRNA or protein) (fraction of control): ≥ 1

## GCTGTCCGTCGCCCCTTC
[1]
  remaining target (mRNA or protein) (fraction of control): 0.87

## TCAACCACATTGCAAGCCTT
[3]
  remaining target (mRNA or protein) (fraction of control): 0.27

## TTGGGACTGCAAACCTCT
[1]
  remaining target (mRNA or protein) (fraction of control): 0.91

## GTTGTCTCCCCATCTGCC
[1]
  remaining target (mRNA or protein) (fraction of control): ≥ 1

## AGGCGGCCGGGCAGCAGG
[1]
  remaining target (mRNA or protein) (fraction of control): ≥ 1

## CTCCGGCTGCCCCACCCC
[1]
  remaining target (mRNA or protein) (fraction of control): 0.52

## GTTGTCGTTGTAAAGTGTCT
[2]
  remaining target (mRNA or protein) (fraction of control): 0.45

## CATCTCCGCGATGTCATGTT
[3]
  remaining target (mRNA or protein) (fraction of control): 0.49

## ACACCAGTGATATTTGGGTG
[3]
  remaining target (mRNA or protein) (fraction of control): ≥ 1

## GGGGTACTGTAGTAACCATT
[2]
  remaining target (mRNA or protein) (fraction of control): 0.55

## GGTACTGTAGTAACCATTCT
[2]
  remaining target (mRNA or protein) (fraction of control): 0.53

## GCACTAGTTTGGGCTTTTGC
[2]
  remaining target (mRNA or protein) (fraction of control): 0.28

## ATCATGATTTGTCAATCACA
[2]
  remaining target (mRNA or protein) (fraction of control): 0.62

## AGTTCGCAGAGTCGGCTA
[1]
  remaining target (mRNA or protein) (fraction of control): 0.68

## CCTGCGCTGTAGTGTTTCAA
[3]
  remaining target (mRNA or protein) (fraction of control): 0.5

## ATGCTCTCCTGCTTATGGTG
[3]
  remaining target (mRNA or protein) (fraction of control): 0.37

## GGCAGCCGCGCGCGCGCTGC
[2]
  remaining target (mRNA or protein) (fraction of control): 0.81

## TGCATGAAAAGCAAGCAC
[1]
  remaining target (mRNA or protein) (fraction of control): 0.91

## TTTAGACTTGCCGTCATTGC
[3]
  remaining target (mRNA or protein) (fraction of control): 0.32

## TCTCCGCGATGTCATGTTCC
[3]
  remaining target (mRNA or protein) (fraction of control): 0.43

## GTAGATATCAATGTGGTTCC
[2]
  remaining target (mRNA or protein) (fraction of control): 0.75

## GAGATCCAGGAGCAGATG
[1]
  remaining target (mRNA or protein) (fraction of control): 0.78

## GGCAGGTTTTCTCATCTGAA
[3]
  remaining target (mRNA or protein) (fraction of control): 0.84

## TTTAAATGGTTTCAAATTTT
[3]
  remaining target (mRNA or protein) (fraction of control): ≥ 1

## CCCTCCTCCTCGTCCTCG
[1]
  remaining target (mRNA or protein) (fraction of control): 0.72

## TTGTTTTCAGGACAGTTTCT
[2]
  remaining target (mRNA or protein) (fraction of control): 0.65

## CACGTTTTCATAGACTCTAG
[3]
  remaining target (mRNA or protein) (fraction of control): 0.71

## TTGTTGAACTAGAAGGTCCT
[2]
  remaining target (mRNA or protein) (fraction of control): 0.57

## TCATCTGAAACTTTTCTGCT
[3]
  remaining target (mRNA or protein) (fraction of control): 0.84

## ACATAAACTTTCTTGCGTCT
[3]
  remaining target (mRNA or protein) (fraction of control): 0.88

## CGAACATGACCTCCGCAC
[1]
  remaining target (mRNA or protein) (fraction of control): 0.52

## ACCTTGTGTACCAACAGC
[1]
  remaining target (mRNA or protein) (fraction of control): ≥ 1

## CCACCGACTCGGTAAGGTGG
[2]
  remaining target (mRNA or protein) (fraction of control): 0.81

## GTCATGTTCCTCCCGCCCTC
[3]
  remaining target (mRNA or protein) (fraction of control): 0.24

## GCAACCCTTTGAGAGTTTCT
[2]
  remaining target (mRNA or protein) (fraction of control): 0.32

## ATTCAGCTAGGTGATAAC
[1]
  remaining target (mRNA or protein) (fraction of control): ≥ 1

## ACTCACACACACTCCTGA
[1]
  remaining target (mRNA or protein) (fraction of control): 0.79

## GGCCCGCTCGGGACCGGACG
[3]
  remaining target (mRNA or protein) (fraction of control): 0.75

## TTCCATGTAATACTGGACCA
[3]
  remaining target (mRNA or protein) (fraction of control): 0.29

## AGAAGTTGGGAATCTGAA
[1]
  remaining target (mRNA or protein) (fraction of control): ≥ 1

## GCTCAGCTCACGCTCTGT
[1]
  remaining target (mRNA or protein) (fraction of control): 0.62

## GTAGTAACCATTCTTGCAGA
[2]
  remaining target (mRNA or protein) (fraction of control): 0.42

## CAGAAATGTCCTCTGAACTG
[2]
  remaining target (mRNA or protein) (fraction of control): 0.5

## AAAACAGAACACAAACGA
[1]
  remaining target (mRNA or protein) (fraction of control): ≥ 1

## AGCACCGAGTGCGTGAGC
[1]
  remaining target (mRNA or protein) (fraction of control): 0.72

## CAGTCCGCCCGCTCGCGGCC
[2]
  remaining target (mRNA or protein) (fraction of control): 0.34

## GTCTGCCTTTTGTTTGAACC
[2]
  remaining target (mRNA or protein) (fraction of control): 0.67

## GCCGATTTTGCTCCGCAC
[1]
  remaining target (mRNA or protein) (fraction of control): 0.78

## AGCCTCTTGACTTCCGAG
[1]
  remaining target (mRNA or protein) (fraction of control): ≥ 1

## CGACAGCAGCAGCAGCAG
[1]
  remaining target (mRNA or protein) (fraction of control): 0.82

## TGCTTGGATTTCTGCTTC
[1]
  remaining target (mRNA or protein) (fraction of control): 0.89

## GATGGTACCTTGGGTTAT
[1]
  remaining target (mRNA or protein) (fraction of control): 0.94

## GGACATCCCCGCTTGCTG
[1]
  remaining target (mRNA or protein) (fraction of control): ≥ 1

## TTTTGCATACTGAGCTTAGG
[2]
  remaining target (mRNA or protein) (fraction of control): 0.48

## CATTCTTGCAGAACTCAAGT
[2]
  remaining target (mRNA or protein) (fraction of control): 0.54

## AGTAACCATTCTTGCAGAAC
[2]
  remaining target (mRNA or protein) (fraction of control): ≥ 1

## AACCTTTGTAGTTAGAAA
[1]
  remaining target (mRNA or protein) (fraction of control): 0.94

## TCAGGCAGCTGGTCCAGCTC
[2]
  remaining target (mRNA or protein) (fraction of control): 0.52

## ACATACTTAGGTAAGGGTTC
[2]
  remaining target (mRNA or protein) (fraction of control): 0.56

## GTATGCCACCACGCACCA
[1]
  remaining target (mRNA or protein) (fraction of control): ≥ 1

## TTGTTGAGCATCCTGTTTCT
[2]
  remaining target (mRNA or protein) (fraction of control): 0.39

## TACTGTAGTAACCATTCTTG
[2]
  remaining target (mRNA or protein) (fraction of control): 0.74

## GCTCCTCCGCCGCCGCCTGC
[2]
  remaining target (mRNA or protein) (fraction of control): 0.27

## ATTGGGTACTGTAGTAACCA
[2]
  remaining target (mRNA or protein) (fraction of control): 0.54

## ACCATTCTTGCAGAACTCAA
[2]
  remaining target (mRNA or protein) (fraction of control): 0.55

## GTAGAAGAAATGAAAGAA
[1]
  remaining target (mRNA or protein) (fraction of control): ≥ 1

## CTGATCTGCACGGTAAAG
[1]
  remaining target (mRNA or protein) (fraction of control): ≥ 1

## CTGGTGAAGTGAGTGGAAAC
[2]
  remaining target (mRNA or protein) (fraction of control): 0.76

## CAATCTTGTGTTTATCTT
[1]
  remaining target (mRNA or protein) (fraction of control): ≥ 1

## TGCCCAGGTACTGCCTCT
[1]
  remaining target (mRNA or protein) (fraction of control): 0.72

## ACACACAGGATGGGAGCA
[1]
  remaining target (mRNA or protein) (fraction of control): ≥ 1

## AAAACCTGATGTCACCAG
[1]
  remaining target (mRNA or protein) (fraction of control): ≥ 1

## CCCACTCCCCGCTGCGTCCG
[2]
  remaining target (mRNA or protein) (fraction of control): 0.06

## GTTTCCAGATAGTTGTTGGG
[2]
  remaining target (mRNA or protein) (fraction of control): 0.85

## CTGTAGTAACCATTCTTGCA
[2]
  remaining target (mRNA or protein) (fraction of control): 0.4

## TAGTTGATCTGTATAATTGG
[2]
  remaining target (mRNA or protein) (fraction of control): ≥ 1

## ATTTCCACCTCATCTGCATA
[2]
  remaining target (mRNA or protein) (fraction of control): 0.44

## CTGCCCCTTCTTCCAAAA
[1]
  remaining target (mRNA or protein) (fraction of control): 0.68

## CCACTGGCCTCGTTCATAGC
[2]
  remaining target (mRNA or protein) (fraction of control): 0.21

## TAACCATTCTTGCAGAACTC
[2]
  remaining target (mRNA or protein) (fraction of control): 0.59

## TTCTTGCAGAACTCAAGTAG
[2]
  remaining target (mRNA or protein) (fraction of control): ≥ 1
